Assay results as given in ChEMBL document CHEMBL5678818, “Discovery of potent SOS1 inhibitors that block RAS activation via disruption of the RAS-SOS1 interaction” (Proc Natl Acad Sci U S A, 2019).

Assays:
Homo sapiens [1] = organism: Homo sapiens; assay: Inhibition of N-terminal GST-tagged recombinant human SOS1 H905M mutant (564 to 1049 residues) expressed in Escherichia coli assessed as reduction in KRAS G12C mutant activation at 10 uM by HTRF analysis relative to control
Homo sapiens [2] = organism: Homo sapiens; assay: Inhibition of N-terminal GST-tagged recombinant human SOS1 S876K mutant (564 to 1049 residues) expressed in Escherichia coli assessed as reduction in KRAS G12C mutant activation at 10 uM by HTRF analysis relative to control
[3] = test system: Receptor-type tyrosine-protein kinase FLT3 (Homo sapiens), P36888 [D835H]; assay: Inhibition of FLT3 D835H mutant (unknown origin) assessed as residual activity at 100 nM by KINOMEscan analysis relative to control
[4] = target: T1, Dual specificity mitogen-activated protein kinase kinase 7 (Homo sapiens) (UniProt O14733); assay: Inhibition of MKK7 (unknown origin) assessed as residual activity at 100 nM by KINOMEscan analysis relative to control
T1 sequence (whole entry): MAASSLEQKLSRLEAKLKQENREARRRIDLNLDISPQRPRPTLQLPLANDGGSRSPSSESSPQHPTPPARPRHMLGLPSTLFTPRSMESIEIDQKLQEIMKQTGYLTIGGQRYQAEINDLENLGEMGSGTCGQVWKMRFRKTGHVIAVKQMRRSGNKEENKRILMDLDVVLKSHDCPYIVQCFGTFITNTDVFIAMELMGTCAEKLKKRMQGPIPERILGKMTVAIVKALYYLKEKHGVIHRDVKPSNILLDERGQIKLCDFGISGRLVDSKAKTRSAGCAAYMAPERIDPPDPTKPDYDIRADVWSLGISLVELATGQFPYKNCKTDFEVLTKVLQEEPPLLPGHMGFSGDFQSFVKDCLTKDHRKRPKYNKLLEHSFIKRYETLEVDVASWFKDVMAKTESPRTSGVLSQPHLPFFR

[5] = target: Macrophage-stimulating protein receptor (Homo sapiens) (UniProt Q04912); assay: Inhibition of MST1R (unknown origin) assessed as residual activity at 100 nM by KINOMEscan analysis relative to control
[6] = target: T2, Serine/threonine-protein kinase Nek1 (Homo sapiens) (UniProt Q96PY6); assay: Inhibition of NEK1 (unknown origin) assessed as residual activity at 100 nM by KINOMEscan analysis relative to control
T2 sequence (whole entry): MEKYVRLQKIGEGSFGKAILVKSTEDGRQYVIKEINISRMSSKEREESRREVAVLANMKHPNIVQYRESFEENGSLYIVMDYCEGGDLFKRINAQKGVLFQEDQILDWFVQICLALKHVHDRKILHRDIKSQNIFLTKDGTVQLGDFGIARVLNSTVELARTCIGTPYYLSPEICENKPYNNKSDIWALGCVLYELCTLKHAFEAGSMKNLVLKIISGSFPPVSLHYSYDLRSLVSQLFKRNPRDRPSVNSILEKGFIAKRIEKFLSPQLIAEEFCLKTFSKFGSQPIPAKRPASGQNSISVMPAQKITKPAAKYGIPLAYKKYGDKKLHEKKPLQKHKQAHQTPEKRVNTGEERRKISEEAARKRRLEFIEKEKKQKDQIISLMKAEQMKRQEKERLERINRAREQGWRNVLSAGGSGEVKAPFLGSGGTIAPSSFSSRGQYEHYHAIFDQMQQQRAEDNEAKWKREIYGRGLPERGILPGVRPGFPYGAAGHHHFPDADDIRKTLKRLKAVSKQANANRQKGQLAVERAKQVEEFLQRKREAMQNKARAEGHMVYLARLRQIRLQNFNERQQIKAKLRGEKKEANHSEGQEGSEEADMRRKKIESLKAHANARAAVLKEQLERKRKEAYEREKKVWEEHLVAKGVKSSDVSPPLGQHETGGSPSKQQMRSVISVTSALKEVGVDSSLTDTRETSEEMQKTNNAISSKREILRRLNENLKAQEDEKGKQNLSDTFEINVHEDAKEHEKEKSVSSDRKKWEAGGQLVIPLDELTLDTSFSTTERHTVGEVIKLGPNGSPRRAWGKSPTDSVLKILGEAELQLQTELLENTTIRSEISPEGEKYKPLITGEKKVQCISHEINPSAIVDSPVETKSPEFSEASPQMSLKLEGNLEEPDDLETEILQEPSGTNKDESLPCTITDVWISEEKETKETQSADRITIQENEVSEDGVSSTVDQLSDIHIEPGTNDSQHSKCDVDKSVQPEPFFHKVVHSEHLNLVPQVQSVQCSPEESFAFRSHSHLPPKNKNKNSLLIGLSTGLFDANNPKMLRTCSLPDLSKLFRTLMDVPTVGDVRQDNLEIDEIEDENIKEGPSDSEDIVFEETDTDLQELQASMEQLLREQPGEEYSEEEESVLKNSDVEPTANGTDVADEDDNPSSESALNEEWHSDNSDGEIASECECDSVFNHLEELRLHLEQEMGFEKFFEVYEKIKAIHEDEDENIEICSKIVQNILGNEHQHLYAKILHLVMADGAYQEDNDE

[7] = target: cAMP-dependent protein kinase catalytic subunit alpha (Homo sapiens) (UniProt P17612); assay: Inhibition of PKAC-alpha (unknown origin) assessed as residual activity at 100 nM by KINOMEscan analysis relative to control
[8] = target: T3, cGMP-dependent protein kinase 1 (Homo sapiens) (UniProt Q13976); assay: Inhibition of PRKG1 (unknown origin) assessed as residual activity at 100 nM by KINOMEscan analysis relative to control
T3 sequence (whole entry): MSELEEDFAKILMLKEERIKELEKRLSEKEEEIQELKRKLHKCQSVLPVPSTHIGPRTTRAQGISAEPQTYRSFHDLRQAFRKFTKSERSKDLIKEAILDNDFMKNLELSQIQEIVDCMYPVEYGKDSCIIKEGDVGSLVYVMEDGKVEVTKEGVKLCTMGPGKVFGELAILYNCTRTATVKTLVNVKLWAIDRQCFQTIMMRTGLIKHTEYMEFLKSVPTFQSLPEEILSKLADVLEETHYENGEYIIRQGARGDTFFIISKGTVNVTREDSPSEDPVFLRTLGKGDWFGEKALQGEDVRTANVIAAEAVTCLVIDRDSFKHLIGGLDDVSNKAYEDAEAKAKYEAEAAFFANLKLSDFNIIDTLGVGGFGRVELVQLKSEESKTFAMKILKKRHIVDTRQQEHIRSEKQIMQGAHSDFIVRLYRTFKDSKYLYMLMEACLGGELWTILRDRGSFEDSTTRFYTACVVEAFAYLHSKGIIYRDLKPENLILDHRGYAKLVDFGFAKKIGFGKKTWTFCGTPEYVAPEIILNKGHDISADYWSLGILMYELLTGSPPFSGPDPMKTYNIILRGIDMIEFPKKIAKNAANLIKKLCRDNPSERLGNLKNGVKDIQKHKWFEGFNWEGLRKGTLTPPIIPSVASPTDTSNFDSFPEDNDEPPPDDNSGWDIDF

[9] = target: Wee1-like protein kinase (Homo sapiens) (UniProt P30291); assay: Inhibition of WEE1 (unknown origin) assessed as residual activity at 100 nM by KINOMEscan analysis relative to control
Wee1-like protein kinase (Homo sapiens), sequence (P30291 whole entry, looked up): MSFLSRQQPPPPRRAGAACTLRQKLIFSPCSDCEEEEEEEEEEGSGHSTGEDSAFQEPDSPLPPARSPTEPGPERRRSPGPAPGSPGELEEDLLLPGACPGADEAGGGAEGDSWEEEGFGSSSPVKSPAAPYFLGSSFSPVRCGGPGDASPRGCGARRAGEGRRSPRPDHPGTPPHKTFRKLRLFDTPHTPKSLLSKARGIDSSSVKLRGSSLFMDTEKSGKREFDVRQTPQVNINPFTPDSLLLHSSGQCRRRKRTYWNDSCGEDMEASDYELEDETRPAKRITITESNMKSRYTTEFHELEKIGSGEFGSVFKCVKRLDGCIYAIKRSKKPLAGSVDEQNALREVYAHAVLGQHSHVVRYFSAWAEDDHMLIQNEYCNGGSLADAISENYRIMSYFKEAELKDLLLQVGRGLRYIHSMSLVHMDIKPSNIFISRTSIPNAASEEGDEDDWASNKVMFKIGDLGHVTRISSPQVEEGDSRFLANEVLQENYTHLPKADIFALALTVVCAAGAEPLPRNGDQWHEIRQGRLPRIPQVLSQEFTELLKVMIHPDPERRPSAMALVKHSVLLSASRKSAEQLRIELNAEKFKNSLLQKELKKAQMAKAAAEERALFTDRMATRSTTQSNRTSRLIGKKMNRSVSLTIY

Macrophage-stimulating protein receptor (Homo sapiens), sequence (Q04912 25-304 limits assumed): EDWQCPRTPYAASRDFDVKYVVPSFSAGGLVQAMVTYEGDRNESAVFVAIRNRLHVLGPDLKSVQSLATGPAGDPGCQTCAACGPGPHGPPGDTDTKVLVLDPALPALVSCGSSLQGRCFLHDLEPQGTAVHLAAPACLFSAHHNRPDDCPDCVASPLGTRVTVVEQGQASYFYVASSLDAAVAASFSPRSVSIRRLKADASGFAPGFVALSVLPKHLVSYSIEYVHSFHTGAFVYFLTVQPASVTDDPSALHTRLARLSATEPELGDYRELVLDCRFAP
Macrophage-stimulating protein receptor (Homo sapiens), sequence (Q04912 310-1400 limits assumed): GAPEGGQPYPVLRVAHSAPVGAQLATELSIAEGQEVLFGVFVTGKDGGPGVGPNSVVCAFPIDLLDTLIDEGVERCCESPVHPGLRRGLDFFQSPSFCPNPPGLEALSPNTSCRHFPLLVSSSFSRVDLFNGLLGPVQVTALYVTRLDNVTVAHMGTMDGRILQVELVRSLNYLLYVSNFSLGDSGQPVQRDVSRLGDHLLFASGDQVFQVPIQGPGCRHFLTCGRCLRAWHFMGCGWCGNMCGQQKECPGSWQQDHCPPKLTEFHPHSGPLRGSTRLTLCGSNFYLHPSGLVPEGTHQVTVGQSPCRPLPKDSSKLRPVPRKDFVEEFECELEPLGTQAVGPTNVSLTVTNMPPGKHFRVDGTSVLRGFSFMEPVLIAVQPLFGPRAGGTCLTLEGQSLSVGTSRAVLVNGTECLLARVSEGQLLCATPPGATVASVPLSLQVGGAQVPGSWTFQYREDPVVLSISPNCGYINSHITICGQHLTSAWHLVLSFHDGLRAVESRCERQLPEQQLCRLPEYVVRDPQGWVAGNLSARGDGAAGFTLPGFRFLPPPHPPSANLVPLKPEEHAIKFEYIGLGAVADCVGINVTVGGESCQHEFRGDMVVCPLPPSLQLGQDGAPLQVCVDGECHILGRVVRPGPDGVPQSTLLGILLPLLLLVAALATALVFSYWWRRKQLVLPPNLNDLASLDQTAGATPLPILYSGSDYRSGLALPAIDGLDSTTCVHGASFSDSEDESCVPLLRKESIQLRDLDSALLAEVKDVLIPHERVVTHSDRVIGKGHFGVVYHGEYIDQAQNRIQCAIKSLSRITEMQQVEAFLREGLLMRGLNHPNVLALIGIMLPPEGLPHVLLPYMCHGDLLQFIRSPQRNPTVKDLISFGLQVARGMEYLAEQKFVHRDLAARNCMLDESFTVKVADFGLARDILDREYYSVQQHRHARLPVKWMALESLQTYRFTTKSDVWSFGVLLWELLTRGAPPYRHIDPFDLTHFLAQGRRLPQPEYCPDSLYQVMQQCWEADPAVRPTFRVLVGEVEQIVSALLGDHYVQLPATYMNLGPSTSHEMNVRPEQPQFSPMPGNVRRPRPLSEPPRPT

Work on `COc1cc2ncnc(N[C@H](C)c3cccc4ccccc34)c2cc1OC` yielded an inhibition (Homo sapiens [1]) of 39%, an inhibition (Homo sapiens [2]) of 102% and an Activity [3] of 92%. The Activity [4] was 77%, the Activity [5] was 100% and the Activity [6] was 100%. For the same compound, the Activity [7] was 80%, the Activity [8] was 96% and the Activity [9] was 88%.
